Reference: patent publication US10945978B2, “Treatment and diagnosis of melanoma” (The Rockefeller University, priority 2012, dated 2021)
Counter-ions that a name gives are not always drawn.

Key:
[1] = tested on: ApoE; test: ApoE expression in mice fed LXR agonist diet (western blot, qRT-PCR); type: in vivo, mouse; details: 10 days; for ApoE protein expression in systemic adipose, lung, and brain tissues: chow 20 mg/kg, western blot; for ApoE transcript levels in circulating white blood cells: diet 20 mg/kg, qRT-PCR
Protocol: Mouse lung and brain tissue samples were homogenized on ice in RIPA buffer (Sigma-Aldrich) supplemented with protease inhibitors (Roche). Mouse adipose tissue was homogenized on ice in TNET buffer (1.5 mM Tris pH 7.5, 150 mM NaCl, 2 mM EDTA 1% triton, protease inhibitors). Total protein lysate (2 jag) was separated by SDS-PAGE, transferred to PVDF membrane, and blotted with an anti-mouse ApoE (ab20874, Abcam) and anti-tubulin α/β (2148, Cell Signaling) antibodies. RNA was extracted from whole cell lysates using the Total RNA Purification Kit (17200, Norgen, Thorold, Canada). 600 ng of total RNA was then reverse transcribed into cDNA using the cDNA First-Strand Synthesis Kit (18080-051, Invitrogen), and quantitative real-time PCR amplification was performed as previously described (Pencheva et al., 2012) using an ABI Prism 7900HT Real-Time PCR System (Applied Biosystems, Austin, Tex.). Each PCR reaction was carried out in quadruplicates. Gene expression was normalized to GAPDH, which was used as an endogenous control.

[2] = tested on: B16F10 mouse melanoma cells; test: Subcutaneous B16F10 tumor growth in C57BL/6 mice; details: for suppression of tumor growth: 20 mg/kg
Protocol: Animals were palpated weekly for tumor formation, after which sizeable tumors were measured twice a week. Tumor volume was calculated as (small diameter)^2×(large diameter)/2.

[3] = tested on: MeWo human melanoma cells; test: Lung metastatic colonization by MeWo cells injected i.v. into NOD Scid mice; type: in vivo; details: for reduction in lung metastatic colonization: chow 20 mg/kg starting 10 days prior to cell injection
Protocol: Melanoma cells used for in vivo metastasis assays were transduced with a stably expressed retroviral construct encoding a luciferase reporter gene (Ponomarev et al., 2004), allowing us to monitor the in vivo progression of melanoma cells by bioluminescence imaging. The following numbers of melanoma cells, resuspended in 100 μL of PBS, were injected intravenously via the tail-vein: 4×10^4 MeWo cells, 2.5×10^5 HT-144 cells, 2×10^5 SK-Mel-334.2 cells, 5×10^4B16F10 cells, and 1×10^5 YUMM cells. The MeWo, HT-144, and SK-Mel-334.2 cells were injected into 6-8 week-old sex-matched NOD scid mice, while the B16F10 and YUMM cells were injected into 6-8 week-old sex-matched C57BL/6 mice. In all experiments assessing at the effects of GW3965 on metastasis formation, mice were pre-treated on a control diet or a GW3965-supplemented diet (20 mg/kg) for 10 days. To assess the effect of GW3965 treatment on brain metastasis, 1×10^5 MeWo brain-metastatic derivatives were injected intracardially into athymic nude mice. Immediately following injection, mice were randomly assigned to a control diet or GW3965-supplemented diet (100 mg/kg). To determine whether oral delivery of GW3965 can inhibit the progression of incipient metastasis, NOD Scid mice were intravenously injected with 4×10^4 MeWo cells and the cells were allowed to colonize the lungs for 42 days, after which mice were blindedly assigned to a control diet or a GW3965-supplemented diet (100 mg/kg) treatment.

[4] = tested on: human umbilical vein endothelial cells (HUVEC's); test: Endothelial recruitment assay (HUVEC migration towards melanoma cells); type: cell-based; details: for ability of melanoma cells to recruit endothelial cells: MeWo, HT-144, SK-Mel-2, SK-Mel-334.2, 1 μM for 72 hours
Protocol: 5×10^4 cancer cells were seeded into 24-well plates approximately 24 hours prior to the start of the assay. HUVEC's were grown to 80% confluency and serum starved in EGM-2 media supplemented with 0.2% FBS for 16 hours. HUVEC's were then pulsed with Cell Tracker Red CMTPX dye (C34552, Invitrogen) for 45 minutes. Meanwhile, cancer cells were washed with PBS, 0.5 mL of 0.2% FBS EGM-2 media was added to each well, and a 3.0 μm HTS Fluoroblock insert (351151, BD Falcon, San Jose, Calif.) was placed into each well. 1×10^5 HUVEC's, resuspended in 0.5 mL of starvation media, were seeded into each trans-well insert, and the recruitment assay was allowed to proceed for 16-18 hours at 37° C. For neutralization antibody and/or recombinant protein experiments, antibody/protein was then added to each well at the appropriate concentration as indicated in the figures: 40 μg/mL anti-ApoE 1D7, 40 μg/mL anti-IgG, 100 μM rhApoE3, and 100 μM BSA. Upon completion of the assay, the inserts were processed and analyzed as described for the matrigel invasion assay above (See Matrigel Invasion Assay).
The endothelial recruitment assay was carried out as previously described (Pencheva et al., 2012; Png et al., 2012). Melanoma cells were treated with DMSO, GW3965, T0901317, or Bexarotene at 1 μM for 56 hours, after which 5×10^4 cells were seeded in a 24-well plate in the presence of each drug and allowed to attach for 16 hours prior to starting the assay. HUVEC cells were serum-starved overnight in EGM-2 media containing 0.2% FBS. The following day, 1×10^5 HUVEC cells were seeded into a 3.0 μm HTS Fluoroblock trans-well migration insert (351151, BD Falcon, San Jose, Calif.) fitted into each well containing cancer cells at the bottom. The HUVEC cells were allowed to migrate towards the cancer cells for 20 hours at 37° C., after which the inserts were processed as previously described (Pencheva et al., 2012). For ApoE antibody neutralization experiments, 40 μg/mL 1D7 anti-ApoE blocking antibody (Heart Institute, University of Ottawa, Ottawa, Canada) or 40 μg/mL anti-IgG control antibody (AB-108-C, R&D Systems, Minneapolis, Minn.) was added to each trans-well insert at the start of the assay.
Subsequently, 5×10^4 cancer cells were seeded into 24-well plates in the presence of each drug or DMSO and allowed to attach for 16 hours prior to starting the assay. Human umbilical vein endothelial cells (HUVEC cells) were serum-starved in 0.2% FBS-containing media overnight. The following day, 1×10^5 HUVEC cells were seeded into a 3.0 μm HTS Fluoroblock insert (351151, BD Falcon) fitted into each well containing the cancer cells at the bottom. The HUVEC cells were allowed to migrate towards the cancer cells for 20 hours, after which the inserts were washed in PBS, fixed in 4% PFA, labeled with DAPI, and mounted on slides. The basal side of each insert was imaged using an inverted fluorescence microscope (Zeiss Axiovert 40 CFL) at 5× magnification, and the number of DAPI-positive cells was quantified using ImageJ.

| Compound | ApoE protein expression in systemic adipose, lung, and brain tissues [1] | ApoE transcript levels in circulating white blood cells [1] | suppression of tumor growth in mice genetically inactivated for ApoE ([2]; ApoE−/− mice, GW3965 diet 20 mg/kg, 7 days) | suppression of tumor growth ([2]; oral, from tumors of 5-10 mm3) | reduction in tumor growth ([2]; oral, 100 mg/kg, from tumors of 5-10 mm3) | reduction in the growth of established large tumors ([2]; tumors ~150 mm3, chow containing GW3965 150 mg/kg) | survival times following metastatic colonization ([3]; GW3965-supplemented chow) | suppression of colonization by incipient lung metastases ([3]; GW3965 diet 100 mg/kg from d42) | number of macroscopic metastatic nodules ([3]; GW3965 diet 100 mg/kg from d42, lungs at d77) | reduction in metastatic colonization capacity ([3]; cells pre-treated with GW3965 1 μM for 48 hours) | in vivo melanoma metastasis (lung, bioluminescence) ([3]; chow containing GW3965 20 mg/kg, oral) | reduction in lung metastatic colonization ([3]; oral) | endothelial recruitment ([4]; MeWo cells pre-treated 48 hours) | ability of melanoma cells to recruit endothelial cells [4] | migration of endothelial cells towards highly metastatic cancer cells ([4]; endothelial cells pre-incubated with ApoE3 100 μM for 24 hours, LM2 cells) | endothelial recruitment ([4]; metastatic LM2 cells, recombinant ApoE3 100 μM vs BSA) |
| --- | --- | --- | --- | --- | --- | --- | --- | --- | --- | --- | --- | --- | --- | --- | --- | --- |
| O=C(O)Cc1cccc(OCCCN(Cc2cccc(C(F)(F)F)c2Cl)CC(c2ccccc2)c2ccccc2)c1 [GW3965 2, 3-[3-[N-(2-Chloro-3-trifluoromethylbenzyl)-(2,2-diphenylethyl)amino]propyloxy] phenylacetic acid hydrochloride] | significantly elevated | upregulated | completely ineffective | 67% | 80% | roughly 50% | significantly prolonged | 28 fold | decreased | more than 50 fold | significant reduction | 31 fold | decreased | consistently suppressed |  |  |
| O=S(=O)(c1ccccc1)N(CC(F)(F)F)c1ccc(C(O)(C(F)(F)F)C(F)(F)F)cc1 [T0901317 1] | significantly elevated | upregulated |  | 61% |  |  |  |  |  |  |  | 23 fold |  | consistently suppressed |  |  |
| recombinant human ApoE: recombinant human ApoE3 (4696, BioVision) |  |  |  |  |  |  |  |  |  |  |  |  |  |  | significantly reduced | significantly suppressed |
